Measured values published in US20140227325A1, “LIGNIN-DERIVED POROUS CARBON COMPOSITION, METHODS OF PREPARATION, AND USE THEREOF” (UT-BATTELLE, LLC, priority 2013, published 2014).

Key:
[1] = Drug loading amount by thermogravimetric analysis (TGA); type: physicochemical; conditions: for Loading percent in LMC-2: drug loaded in LMC-2, TGA; for Loading percent in PMC: drug loaded in PMC, TGA
Experimental: (§1) The loaded mesoporous carbons were dried, the external surface cleaned, and then placed into 130 cm^3 of simulated gastric fluid without pepsin (SGF; 0.2% w/v NaCl, aqueous HCl, pH adjusted to ˜1.5) or into simulated intestinal fluid (SIF) at ambient temperature for 30-50 hours under mild stirring (˜60 rpm) for in-vitro drug release. The drug concentrations were measured by UV-Vis spectroscopy utilizing a calibration curve on absorbance at various concentrations of the drug in SGF or SIF medium.
The drug loading amount in PMC and LMC-2 were measured with the help of thermogravimetric analysis (TGA). Pure mesoporous carbons, pure drugs, and drug-loaded carbons were heated under an inert atmosphere (N2) up to 1000° C., wherein the drug loading amount was calculated by comparing the relative amount of residues.

[2] = cited from earlier work
[3] = In-vitro drug release from loaded mesoporous carbon in SGF or SIF (UV-Vis), with kinetic and diffusivity analysis; type: physicochemical
Experimental: as §1
In order to further investigate the diffusivity of the loaded drugs in the releasing media, Fick's laws of diffusion in spherical and cylindrical coordinates were utilized. Based on the assumption that drug-loaded mesoporous carbons are monolithic systems, the release profile in the spherical system can be mathematically expressed as (J. Siepmann, F. Siepmann, J., Controlled Release, 161 (2012) 351-362.):
versus t will yield the diffusivity values for both types of systems. […] As the centers of micelles are believed to give rise to the mesopores, and because the micelles are approximately spherical in shape, a distorted spherical to cylindrical entity could serve as the closest approximation of the pore geometry. Based on these assumptions, diffusivity values have been calculated from all the release patterns for both spherical and cylindrical systems.
versus t which also yields the diffusivity values of antipyrine from LMC-2 and PMC at three temperatures of 25° C., 35.5° C., and 50° C. Because of the surfactant templating, it was assumed that the mesopore geometries have a spherical to cylindrical shape, which became a basis for calculating the diffusivity values from each of the patterns in both cylindrical and spherical systems.
In order to provide further insight on the temperature dependence of diffusivity, calculations were made using the Eyring equation by assuming antipyrine diffusion from the pores of the carbons is an activation process,
where Eα is the activation energy.

[4] = N2 adsorption-desorption on drug-loaded mesoporous carbons (pore filling); type: physicochemical
Experimental: In order to further investigate the occupancy of pore space by drug molecules, N2 adsorption-desorption experiments were performed on the drug-loaded mesoporous carbons, and the pore size distribution was calculated by the NLDFT method.

[5] = from LMC-1, SGF, within around 60% of total drug release

## Cc1cc(=O)n(-c2ccccc2)n1C [Antipyrine]
[1]
  Loading percent in LMC-2: 12%
  Loading percent in PMC: 22%
[2]; from porous silica
  completion of release: 300 min

## C[C@H](CS)C(=O)N1CCC[C@H]1C(=O)O [Captopril]
[3]; LMC/SGF
  Diffusivity, Cylindrical: 2 × 10^−22 m^2/s
  Diffusivity, Spherical: 9 × 10^−23 m^2/s
[3]; PMC/SGF
  Diffusivity, Cylindrical: 2 × 10^−23 m^2/s
  Diffusivity, Spherical: 7 × 10^−24 m^2/s
[3]; from LMC, SGF
  time to complete release: < 20 h
[3]; [5]
  order of release (Korsmeyer-Peppas equation): 0.42
  release rate constant (Korsmeyer-Peppas equation): 3.9
[3]; from PMC, SGF
  time to complete release: ~40 h
[1]
  Loading percent in LMC-2: 5%
  Loading percent in PMC: 13%
[4]; PMC
  pore filling by drug: highest pore filling

## NS(=O)(=O)c1cc(C(=O)O)c(NCc2ccco2)cc1Cl [Furosemide]
[3]; LMC/SGF
  Diffusivity, Cylindrical: 6 × 10^−22 m^2/s
  Diffusivity, Spherical: 4 × 10^−22 m^2/s
[3]; PMC/SGF
  Diffusivity, Cylindrical: 7 × 10^−23 m^2/s
  Diffusivity, Spherical: 4 × 10^−23 m^2/s
[3]; PMC/SIF
  Diffusivity, Cylindrical: 2 × 10^−23 m^2/s
  Diffusivity, Spherical: 1 × 10^−23 m^2/s
[3]; SGF
  initial burst, drug released within 1.5 hours: 60%
[3]; from LMC, SGF
  time to complete release: less than 10 hours
[3]; from PMC, SGF
  time to complete release: 30 to 40 h
[3]; from PMC, SIF (pH ~6.8)
  time to complete release: 30 to 40 h
[3]; release from LMC
  order of magnitude of diffusivity: 10^−22 m^2/s
[3]; release from PMC in both SGF and SIF
  order of magnitude of diffusivity: 10^−23 m^2/s
[1]
  Loading percent in LMC-2: 6.6%
  Loading percent in PMC: 6.7%
[2]; from mesoporous silica nanoparticles, pH range 5.5 to 7.4
  release completed: less than 100 minutes
[4]; both types of carbons (PMC, LMC-2)
  pore filling by drug: minimum pore filling
